Test results reported in publication PMC7463651, “Phase I/Ib Study of Tenalisib (RP6530), a Dual PI3K δ/γ Inhibitor in Patients with Relapsed/Refractory T-Cell Lymphoma” (Cancers, 2020).
Where “and” joins values, the source holds several entries; their conditions need not be identical. Identical values can stand only once.

Test system: patients with relapsed/refractory T Cell Lymphoma
Experiment: Safety assessment (adverse events per CTCAE v4.03, DLT/MTD) in phase I/Ib study
Format: in vivo, human
Method: Protocol defined hematological or non-hematological toxicity was considered dose-limiting if it occurred during the first cycle (within the first 28 d) and was considered related to Tenalisib. Hematological DLTs was defined as Grade 4 anemia; Grade 4 neutropenia for >7 days, or Grade ≥3 febrile neutropenia with fever >38.5 °C [101 °F]; Grade 4 thrombocytopenia for >7 days, or Grade ≥3 thrombocytopenia associated with Grade >2 bleeding.
Safety assessment included adverse event (AE) and serious adverse events (SAE) as per Common Terminology Criteria for Adverse Events (CTCAE), Version 4.03. During dose escalation, safety assessments were performed at weekly intervals during Cycle 1 and Cycle 2 and at two weekly intervals during Cycle 3 and 4. After completion of Cycle 4, safety assessments were performed on Day 1 of each subsequent cycle. In dose expansion phase, all safety assessments were performed on Day 1 of each cycle.

[1] = Relationship-all, Dose Expansion (N = 39)
[2] = Relationship-all, Total (N = 58)

CC[C@H](Nc1ncnc2[nH]cnc12)c1oc2ccccc2c(=O)c1-c1cccc(F)c1 [Tenalisib]
Pyrexia: patients with event [1]: 9 (23.1%) n (%)
Rash: count of events [1]: 6
Rash: patients with event [1]: 3 (7.7%) n (%)
Tachycardia: count of events [1]: 3
Tachycardia: patients with event [1]: 3 (7.7%) n (%)
Vomiting: count of events [1]: 6
Vomiting: patients with event [1]: 5 (12.8%) n (%)
Abdominal pain: count of events [2]: 9
Abdominal pain: patients with event [2]: 8 (13.8%) n (%)
Alanine aminotransferase increased: count of events [2]: 33
Alanine aminotransferase increased: patients with event [2]: 20 (34.5%) n (%)
Anemia: count of events [2]: 16
Anemia: patients with event [2]: 9 (15.5%) n (%)
Aspartate aminotransferase increased: count of events [2]: 37
Aspartate aminotransferase increased: patients with event [2]: 21 (36.2%) n (%)
Blood creatinine increased: count of events [2]: 7
Blood creatinine increased: patients with event [2]: 7 (12.1%) n (%)
Blood thyroid stimulating hormone increased: count of events [2]: 7
Blood thyroid stimulating hormone increased: patients with event [2]: 6 (10.3%) n (%)
Constipation: count of events [2]: 10
Constipation: patients with event [2]: 9 (15.5%) n (%)
Cough: count of events [2]: 16
Cough: patients with event [2]: 13 (22.4%) n (%)
Decreased appetite: count of events [2]: 13
Decreased appetite: patients with event [2]: 12 (20.7%) n (%)
Dehydration: count of events [2]: 18
Dehydration: patients with event [2]: 13 (22.4%) n (%)
Diarrhea: count of events [2]: 25
Diarrhea: patients with event [2]: 19 (32.8%) n (%)
Dizziness: count of events [2]: 12
Dizziness: patients with event [2]: 10 (17.2%) n (%)
Dry skin: count of events [2]: 8
Dry skin: patients with event [2]: 7 (12.1%) n (%)
Dyspnea: count of events [2]: 7
Dyspnea: patients with event [2]: 7 (12.1%) n (%)
Fatigue: count of events [2]: 27
Fatigue: patients with event [2]: 26 (45%) n (%) and 26 (44.8%) n (%)
Gamma-glutamyl transferase increased: count of events [2]: 11
Gamma-glutamyl transferase increased: patients with event [2]: 8 (13.8%) n (%)
Grade 3/4 Alanine aminotransferase increased: count of events [2]: 12
Grade 3/4 Alanine aminotransferase increased: patients with event [2]: 11 (19.0%) n (%)
Grade 3/4 Anemia: count of events [2]: 8
Grade 3/4 Anemia: patients with event [2]: 5 (8.6%) n (%)
Grade 3/4 Aspartate aminotransferase increased: count of events [2]: 12
Grade 3/4 Aspartate aminotransferase increased: patients with event [2]: 11 (19.0%) n (%)
Grade 3/4 Fatigue: count of events [2]: 4
Grade 3/4 Fatigue: patients with event [2]: 3 (5.2%) n (%)
Grade 3/4 Hyponatremia: count of events [2]: 4
Grade 3/4 Hyponatremia: patients with event [2]: 4 (6.9%) n (%)
Grade 3/4 Neutropenia: count of events [2]: 4
Grade 3/4 Neutropenia: patients with event [2]: 4 (6.9%) n (%)
Grade 3/4 Thrombocytopenia: count of events [2]: 3
Grade 3/4 Thrombocytopenia: patients with event [2]: 3 (5.2%) n (%)
Headache: count of events [2]: 13
Headache: patients with event [2]: 10 (17.2%) n (%)
Hypokalemia: count of events [2]: 10
Hypokalemia: patients with event [2]: 7 (12.1%) n (%)
Hyponatremia: count of events [2]: 9
Hyponatremia: patients with event [2]: 8 (13.8%) n (%)
Insomnia: count of events [2]: 7
Insomnia: patients with event [2]: 6 (10.3%) n (%)
Muscle spasms: count of events [2]: 10
Muscle spasms: patients with event [2]: 9 (15.5%) n (%)
Nausea: count of events [2]: 16
Nausea: patients with event [2]: 15 (25.9%) n (%)
Pruritus: count of events [2]: 10
Pruritus: patients with event [2]: 9 (15.5%) n (%)
Psychiatric disorders: count of events [2]: 18
Psychiatric disorders: patients with event [2]: 11 (19.0%) n (%)
Pyrexia: count of events [2]: 21
Pyrexia: patients with event [2]: 13 (22.4%) n (%)
Rash: count of events [2]: 10
Rash: patients with event [2]: 6 (10.3%) n (%)
Tachycardia: count of events [2]: 9
Tachycardia: patients with event [2]: 8 (13.8%) n (%)
Vomiting: count of events [2]: 11
Vomiting: patients with event [2]: 9 (15.5%) n (%)
Fatigue, most frequently reported TEAE (all patients): 45%
Transaminase elevations, most frequently reported related TEAE (all patients): 33%
Late onset toxicities like colitis, pneumonitis, and opportunistic infections (also in patients treated for more than six months): not seen
Alanine aminotransferase increased: count of events (human, in vivo): 13
Alanine aminotransferase increased: patients with event (human, in vivo): 6 (31.6%) n (%)
Anemia, Grade 3 TEAE (human, in vivo): 8.6%
Anemia: count of events (human, in vivo): 1
Anemia: patients with event (human, in vivo): 1 (5.3%) n (%)
Aspartate aminotransferase increased: count of events (human, in vivo): 15
Aspartate aminotransferase increased: patients with event (human, in vivo): 6 (31.6%) n (%)
Blood alkaline phosphatase increased: count of events (human, in vivo): 1
Blood alkaline phosphatase increased: patients with event (human, in vivo): 1 (5.3%) n (%)
Blood creatinine increased: patients with event (human, in vivo): 1 (5.3%) n (%)
Blood thyroid stimulating hormone increased: count of events (human, in vivo): 2
Blood thyroid stimulating hormone increased: patients with event (human, in vivo): 2 (10.5%) n (%)
Constipation: count of events (human, in vivo): 5
Constipation: patients with event (human, in vivo): 4 (21.1%) n (%)
Cough: count of events (human, in vivo): 7
Cough: patients with event (human, in vivo): 6 (31.6%) n (%)
Decreased appetite: count of events (human, in vivo): 5
Decreased appetite: patients with event (human, in vivo): 5 (26.3%) n (%)
Discontinuation due to adverse events (human, in vivo): 9%
Dry skin: count of events (human, in vivo): 2
Dry skin: patients with event (human, in vivo): 2 (10.5%) n (%)
Dyspepsia: count of events (human, in vivo): 1
Dyspepsia: patients with event (human, in vivo): 1 (5.3%) n (%)
Dyspnea: count of events (human, in vivo): 5
Dyspnea: patients with event (human, in vivo): 5 (26.3%) n (%)
Erythema: count of events (human, in vivo): 1
Erythema: patients with event (human, in vivo): 1 (5.3%) n (%)
Gamma-glutamyl transferase increased: count of events (human, in vivo): 2
Gamma-glutamyl transferase increased: patients with event (human, in vivo): 2 (10.5%) n (%)
Gamma-glutamyltransferase increased: count of events (human, in vivo): 2
Gamma-glutamyltransferase increased: patients with event (human, in vivo): 2 (10.5%) n (%)
Grade 3/4 Alanine aminotransferase increased: count of events (human, in vivo): 7
Grade 3/4 Alanine aminotransferase increased: patients with event (human, in vivo): 6 (15.4%) n (%)
Grade 3/4 Anemia: count of events (human, in vivo): 6
Grade 3/4 Anemia: patients with event (human, in vivo): 3 (7.7%) n (%)
Grade 3/4 Aspartate aminotransferase increased: count of events (human, in vivo): 8
Grade 3/4 Aspartate aminotransferase increased: patients with event (human, in vivo): 7 (17.9%) n (%)
Grade 3/4 Fatigue: count of events (human, in vivo): 3
Grade 3/4 Fatigue: patients with event (human, in vivo): 2 (5.1%) n (%)
Grade 3/4 Hyponatremia: count of events (human, in vivo): 2
Grade 3/4 Hyponatremia: patients with event (human, in vivo): 2 (5.1%) n (%)
Grade 3/4 Neutropenia: count of events (human, in vivo): 2
Grade 3/4 Neutropenia: patients with event (human, in vivo): 2 (5.1%) n (%)
Grade 3/4 Thrombocytopenia: count of events (human, in vivo): 2
Grade 3/4 Thrombocytopenia: patients with event (human, in vivo): 2 (5.1%) n (%)
Headache: count of events (human, in vivo): 4
Headache: patients with event (human, in vivo): 3 (15.8%) n (%)
Hypokalemia: count of events (human, in vivo): 5
Hypokalemia: patients with event (human, in vivo): 4 (21.1%) n (%)
Hyponatremia, Grade 3 TEAE (human, in vivo): 6.9%
Hyponatremia: count of events (human, in vivo): 4
Hyponatremia: patients with event (human, in vivo): 4 (21.1%) n (%)
Insomnia: count of events (human, in vivo): 3
Insomnia: patients with event (human, in vivo): 3 (15.8%) n (%)
Neutropenia, Grade 3 TEAE (human, in vivo): 6.9%
Neutropenia: count of events (human, in vivo): 2
Number of related ≥Grade 3 AEs (human, in vivo): 12
Patients discontinued because of TEAEs (human, in vivo): 14%
Patients with SAEs (human, in vivo): 22 (38%) n (%)
Patients with at least one TEAE (human, in vivo): 57 (98%) n (%)
Patients with related AEs (human, in vivo): 18 (64%) n (%)
Patients with related Grade 4 TEAEs (human, in vivo): 5.2%
Patients with related ≥Grade 3 AEs (human, in vivo): 9 (32%) n (%)
Pruritus: count of events (human, in vivo): 5
Pruritus: patients with event (human, in vivo): 4 (21.1%) n (%)
Psychiatric disorders: count of events (human, in vivo): 6
Psychiatric disorders: patients with event (human, in vivo): 4 (21.1%) n (%)
Pyrexia: count of events (human, in vivo): 4
Pyrexia: patients with event (human, in vivo): 4 (21.1%) n (%)
Rash: count of events (human, in vivo): 4
Rash: patients with event (human, in vivo): 3 (15.8%) n (%)
SAEs gastrointestinal disorders, patients (human, in vivo): 9%
SAEs related to infections, patients (human, in vivo): 16%
Tachycardia: count of events (human, in vivo): 6
Tachycardia: patients with event (human, in vivo): 5 (26.3%) n (%)
Transaminase elevation, related Grade ≥3 TEAE (human, in vivo): 21%
Deaths related to drug (in vivo): none of them were related to Tenalisib
Dose-limiting toxicities (DLT) (in vivo): no DLTs
Fatal outcome of related TEAEs (in vivo): None of the related TEAEs led to a fatal outcome
Grade 4 related TEAEs (in vivo): two events of ALT increase and one event of sepsis
Number of SAEs assessed to be related (in vivo): six
Number of SAEs reported (in vivo): Thirty-seven
Deaths reported in the study (seven deaths): 12%
